From patent US20220073557A1, “FLUORINATED BILE ACIDS” (NZP UK LIMITED, priority 2018, published 2022)
Where two headings read alike, the source gives them in different places.

Legend:
[1] = test system: sporadic PD patient fibroblasts; test: Cellular ATP levels (ATPlite, normalised to CyQUANT DNA content) in sporadic PD patient fibroblasts; format: cell-based; conditions: Homo sapiens, Fibroblast, 24 h
Description: (§1) Fibroblasts were cultured in DMEM (Invitrogen) and routinely subcultured every 3-5 days using trypsin to dissociate them.
The ATP protocol is generally as described in Mortiboys et al, “Mitochondrial function and morphology are impaired in parkin-mutant fibroblasts”, Ann Neurol. 2008 November; 64(5):555-65. Briefly, fibroblasts were cultured as and plated into white 384 well plates with 5000 cells per well in 50 μl of media volume. The plates are left overnight in an incubator to allow the fibroblasts to adhere to the plate surface. The following morning the Glucose based medium is replaced with 25 μl of Galactose based medium. The compounds are added to the plates using a ECHO 550 liquid handling system. The wells were dosed to provide an 8-point concentration range of 0.06 nM-300 nM of compound. After dosing the wells are topped up with a further 25 μl of Galactose based medium and then left in an incubator for 24 hours. Following this incubation the medium is removed from the plate and the wells are washed twice with sterile PBS. The wells are filled with 25 μl of Sterile PBS followed by 12.5 μl of Lysis solution from the ATPlite™ Luminescence ATP detection assay system (Perkin Elmer), including 16 cell free wells to use as blank controls. The plate is then placed on a rotary shaker for 5 mins at 700 rpm. Following the shaking 12.5 μl of ATP substrate solution (Perkin Elmer) is added to each well and a further 5 min of shaking. The plate is then placed in darkness for 10 minutes prior to reading. Using a PHERAStar® plate reader, luminescence intensity is recorded. Following the ATP assay the plates are immediately assayed for DNA content in a CyQUANT® assay.
Immediately following The ATP assay DNA content is assessed with the CyQUANT® NF Cell Proliferation Assay Kit (ThermoFisher). CyQUANT® buffer is prepared immediately before the assay and is comprised of 1 ul CyQUANT® dye per ml×1 HBSS solution. 12.5 ul of CyQUANT® buffer is added to each well. Plate left in incubator for 1 hour then read on a PHERAStar® Plate reader with excitation at 497 nm and emission at 520 nm. ATP Quantification for each well is determined using the following formula: […]
After the assays had been repeated in triplicate per line and compound the data was then inputted into Graph pad Prism 7 software suite where a dose response curve is generated using the default “[Agonist] vs response (three parameters)” equation.
From this EC50 values, lowest response and maximal response were taken and used to calculate the Geometric mean between the 5 different lines assessed.
Cellular ATP levels were measured in fibroblasts from 6 (Table 3) or 3 (Table 4) patients with sporadic Parkinson's disease when treated with Compounds of the invention or Comparator compounds. The results are shown in Tables 3 and 4, where “Bottom”=max response with lowest dose of compound (0.06 nM) and “top”=max response with highest dose of compound (300 nM).

[2] = test system: dopaminergic neurons derived from sPD patients (iNeurons); test: Mitochondrial function and neuronal morphology measurements in iNeurons from sPD patients; format: cell-based, human; conditions: for EC50: Homo sapiens, Neuron
Description: as §1
(§2) Briefly, iNPCs are plated in a 6-well plate and cultured for 2 days in DMEM/F-12 medium with Glutamax™ supplemented with 1% NEAA, 2% B27 (Gibco) and 2.5 μM of DAPT. On day 3, DAPT is removed and the medium is supplemented with 1 μM smoothened agonist (SAG) and FGF8 (75 ng/ml) for additional 10 days. Neurons are replated at this stage. Subsequently SAG and FGF8 are withdrawn and replaced with BDNF (30 ng/ml), GDNF (30 ng/ml), TGF-b3 […] and dcAMP (2 mM, Sigma) for 15 days.
Cells are plated in 96 well plates; for live imaging cells are incubated for one hour at 37 degree with 80 nM tetramethlyrhodamine (TMRM), 1 μM LysoTracker® Green (Invitrogen) and Hoechst Stain solution (Sigma) at 1 μM before imaging using Opera Phenix™. Cellular ATP measurements are undertaken using ATPlite kit (Perkin Elmer) as per manufacturer's instructions. Mitochondrial reactive oxygen species generation was assessed using mitochondrial NpFR2 (probe; a kind gift from Dr Liz New, University of Sydney, Australia) at 20 μM and Hoechst stain solution at 1 μM for 30 mins at 37° C., then the dyes are removed and cells images using Opera Phenix™. Images generated from the live imaging experiments were analysed using Harmony® (Perkin Elmer software). We developed protocols in order to segment nucleus, cell boundary and processes, mitochondria, lysosomes, autophagosomes. We only analysed the z projection images collected from the z stacks.

[3] = test system: dopaminergic neurons derived from sPD patients (iNeurons); test: Dopamine ELISA in iNeurons; format: cell-based, human; conditions: untreated sPD 0
Description: as §2
Dopamine ELISA is performed using Dopamine research ELISA kit (Labor Diagnostika Nord GmbH&Co. KG) as per manufacturers instructions. Dopamine release is obtained incubating the cells at 37° C. using three different conditions at the same time per line. Medium is removed in all wells then the first well is incubated with HBSS with Ca^2+ and Mg^2+ (Gibco by Life Technologies) for 30 minutes, the second well is incubated in HBSS with Ca^2+ and Mg^2+ for 15 minutes and then 56 mM KCl (Fisher chemical) is added for another 15 minutes and the third well is incubated with HBSS without Ca^2+ and Mg^2+ (Gibco by Life Technologies) but with 2 mM EDTA for 15 min and then 56 mM KCl is added for another 15 minutes. Straight away media is collected in an eppendorf and cells are harvested using Accutase®, centrifuge at 400 g for 4 min and resuspended in 10 μl of PBS. […]

In the case of `C[C@H](CCC(=O)O)[C@H]1CC[C@H]2[C@@H]3[C@@H](O)C[C@@H]4C[C@@H](O)C(F)(F)C[C@]4(C)[C@H]3CC[C@]12C` [Compound 7, 2,2-difluoro-3β,7β-dihydroxy-5β-cholanic acid], the activity at 60 pM ([1]; read-out: Cellular ATP levels Bottom (% of vehicle treated)) is reported as 112%, the EC50 ([1]; read-out: Cellular ATP levels EC50 (nM)) is reported as 0.429 nM and the activity at 0.3 µM ([1]; read-out: Cellular ATP levels Top (% of vehicle treated)) is reported as 172%. The EC50 ([2]; read-out: ATP EC50 (nM)) was 0.8 nM, the EC50 ([2]; read-out: MMP EC50 (nM)) was 0.52 nM and the “Neuronal morphology (elongation; % controls)” value ([2]; iNeurons from sPD patients, untreated sPD 48) was 78 % controls. The “ATP normalisation (% of controls)” value ([2]; iNeurons from sPD patients, untreated sPD 50) was 101 % of controls, the “MMP normalisation (% of controls)” value ([2]; iNeurons from sPD patients, untreated sPD 52) was 100 % of controls and the “ROS (Normalisation) (% controls)” value ([2]; iNeurons from sPD patients, untreated sPD 115) was 103 % controls. The “Dopamine level (increase in dopamine release)” value [3] was about 5% increase in.
